Assay results reported in ChEMBL document CHEMBL3286345, “Synthesis and biological activity of new arenediyne-linked isoxazolidines” (2014).
Activity calls are given as the source filed them. The calls are words filed in the database; no cut-off is given here.

Tests used:
[1] = test system: SH-SY5Y; assay: Antiproliferative activity against human SH-SY5Y cells at 1 to 100 uM after 24 to 72 hrs by cell counting assay; format: functional, cell-based
[2] = test system: HT-29; assay: Antiproliferative activity against human HT-29 cells at 50 uM after 48 to 72 hrs by MTT assay; format: functional, cell-based
[3] = test system: HepG2; assay: Antiproliferative activity against human HepG2 cells after 24 to 72 hrs by MTT assay; format: functional, cell-based
[4] = test system: HT-29; assay: Cytotoxicity against human HT-29 cells assessed as cell death at 1 to 100 uM after 24 to 72 hrs by trypan blue dye exclusion assay; format: functional, cell-based
[5] = test system: HT-29; assay: Antiproliferative activity against human HT-29 cells at 1 to 100 uM after 24 to 72 hrs by cell counting assay; format: functional, cell-based
[6] = test system: HepG2; assay: Antiproliferative activity against human HepG2 cells at 1 to 100 uM by MTT assay; format: functional, cell-based; settings: TDE = time-dependent effect
[7] = test system: HT-29; assay: Antiproliferative activity against human HT-29 cells after 24 to 72 hrs by MTT assay; format: functional, cell-based
[8] = test system: SH-SY5Y; assay: Cytotoxicity against human SH-SY5Y cells at 50 to 100 uM after 24 to 72 hrs by LDH release assay; format: functional, cell-based
[9] = test system: HepG2; assay: Cytotoxicity against human HepG2 cells assessed as cell death at 1 to 100 uM after 24 to 72 hrs by trypan blue dye exclusion assay; format: functional, cell-based
[10] = test system: HepG2; assay: Antiproliferative activity against human HepG2 cells at 1 to 100 uM after 24 to 72 hrs by cell counting assay; format: functional, cell-based
[11] = test system: HT-29; assay: Antiproliferative activity against human HT-29 cells at 1 to 100 uM by MTT assay; format: functional, cell-based; settings: TDE = time-dependent effect
[12] = test system: SH-SY5Y; assay: Antiproliferative activity against human SH-SY5Y cells at 1 to 100 uM by MTT assay; format: functional, cell-based; settings: TDE = time-dependent effect
[13] = test system: HT-29; assay: Antiproliferative activity against human HT-29 cells at 100 uM after 48 hrs by MTT assay; format: functional, cell-based
[14] = test system: HT-29; assay: Cytotoxicity against human HT-29 cells at 50 to 100 uM after 24 to 72 hrs by LDH release assay; format: functional, cell-based
[15] = test system: SH-SY5Y; assay: Cytotoxicity against human SH-SY5Y cells assessed as cell death at 1 to 100 uM after 24 to 72 hrs by trypan blue dye exclusion assay; format: functional, cell-based
[16] = test system: HepG2; assay: Cytotoxicity against human HepG2 cells at 50 to 100 uM after 24 to 72 hrs by LDH release assay; format: functional, cell-based
[17] = test system: HT-29; assay: Antiproliferative activity against human HT-29 cells at 100 uM after 72 hrs by MTT assay; format: functional
[18] = test system: SH-SY5Y; assay: Antiproliferative activity against human SH-SY5Y cells after 24 to 72 hrs by MTT assay; format: functional, cell-based
[19] = test system: HT-29; assay: Antiproliferative activity against human HT-29 cells at 1 to 100 uM after 24 to 72 hrs by MTT assay; format: functional, cell-based
[20] = test system: SH-SY5Y; assay: Cytotoxicity against human SH-SY5Y cells at 1 to 100 uM after 24 to 72 hrs by LDH release assay; format: functional, cell-based
[21] = test system: HepG2; assay: Cytotoxicity against human HepG2 cells at 1 to 100 uM after 24 to 72 hrs by LDH release assay; format: functional, cell-based
[22] = test system: SH-SY5Y; assay: Antiproliferative activity against human SH-SY5Y cells at 1 to 100 uM after 24 to 72 hrs by MTT assay; format: functional, cell-based
[23] = test system: HepG2; assay: Antiproliferative activity against human HepG2 cells at 1 to 100 uM after 24 to 72 hrs by MTT assay; format: functional, cell-based
[24] = test system: HT-29; assay: Cytotoxicity against human HT-29 cells at 1 to 100 uM after 24 to 72 hrs by LDH release assay; format: functional, cell-based
[25] = test system: SH-SY5Y; assay: Antiproliferative activity against human SH-SY5Y cells at 100 uM after 72 hrs by MTT assay; format: functional, cell-based
[26] = test system: HT-29; assay: Antiproliferative activity against human HT-29 cells at 50 to 100 uM after 48 to 72 hrs by MTT assay; format: functional, cell-based
[27] = test system: HepG2; assay: Antiproliferative activity against human HepG2 cells at 100 uM after 72 hrs by MTT assay; format: functional, cell-based

Row | SMILES | Activity [1] | Activity [3] | Activity [4] | Activity [5] | Activity [6] | Activity [7] | Activity [8] | Activity [9] | Activity [10] | Activity [11] | Activity [12] | Activity [14] | Activity [15] | Activity [16] | Activity [18] | Activity [19] | Activity [20] | Activity [21] | Activity [22] | Activity [23] | also measured
1 | CN1O[C@@H]2COCC#Cc3ccccc3C#CCOC[C@@H]2[C@@H]1CO[Si](c1ccccc1)(c1ccccc1)C(C)(C)C (racemic) | Active | Dose-dependent effect | Active | Active | tde | Dose-dependent effect | Active | Active | Active | tde | tde | Active | Active | Active | Dose-dependent effect |  |  |  |  |  | Activity [2]: Active; Activity [13]: Active; Activity [17]: 63%
2 | CN1O[C@@H](OCC#Cc2ccccc2C#CCO)C[C@@H]1CO[Si](c1ccccc1)(c1ccccc1)C(C)(C)C (racemic) | inactive |  |  | inactive |  |  |  |  | inactive |  |  |  |  |  |  | inactive | inactive | inactive | inactive | inactive | Activity [24]: inactive
3 | CN1O[C@H](OCC#Cc2ccccc2C#CCO)C[C@@H]1CO[Si](c1ccccc1)(c1ccccc1)C(C)(C)C (racemic) | inactive |  |  | inactive |  |  |  |  | inactive |  |  |  |  |  |  | inactive | inactive | inactive | inactive | inactive | Activity [24]: inactive
4 | CN1O[C@H](OCC#Cc2ccccc2C#CCO)C[C@@H]1CO (racemic) | Active | Dose-dependent effect | Active | Active | tde | Dose-dependent effect | Active | Active | Active | tde | tde | Active | Active | Active | Dose-dependent effect |  |  |  |  |  | Activity [25]: Active; Activity [26]: Active; Activity [27]: Active
